Assay results taken from ChEMBL document CHEMBL5055656, “Synthesis of novel indole-thiazolidinone hybrid structures as promising scaffold with anticancer potential” (Bioorg Med Chem, 2021).
Calls of active or inactive are those of the source. The rule behind the calls is not given here.

How the values were obtained:
HCT-116 [1] = assay: Induction of cell cycle arrest in human HCT-116 cells assessed as decrease in phospho-Rb expression measured after 24 hrs by Western blot analysis; format: functional, cell-based
BALB/3T3 [2] = assay: Induction of DNA damage in mouse BALB/3T3 cells assessed as increase in olive tail moment incubated at 1.6 uM measured after 24 hrs by alkaline Comet assay; format: cell-based; conditions: balb/3t3, 24 h
HepG2 [3] = assay: Induction of DNA damage in human HepG2 cells assessed as increase in olive tail moment incubated at 0.5 uM measured after 24 hrs by alkaline Comet assay; format: functional
HepG2 [4] = assay: Induction of apoptosis in human HepG2 cells assessed as increase in Bax expression at 1.6 uM after 24 hrs by Western blot analysis; format: functional, cell-based
BALB/3T3 [5] = assay: Induction of DNA damage in mouse BALB/3T3 cells assessed as increase in tail length incubated at 1.6 uM measured after 24 hrs by alkaline Comet assay; format: cell-based; conditions: balb/3t3, 24 h
HepG2 [6] = assay: Induction of apoptosis in human HepG2 cells assessed as increase in phospho-Chk2 expression at 1.6 uM after 24 hrs by Western blot analysis; format: functional, cell-based
HepG2 [7] = assay: Induction of apoptosis in human HepG2 cells assessed as increase in Cdk2 expression at 1.6 uM after 24 hrs by Western blot analysis; format: functional, cell-based
MCF7 [8] = assay: Cytotoxicity against human MCF7 cells assessed as cell growth inhibition measured after 72 hrs by MTT assay; format: functional
HCT-116 [9] = assay: Induction of apoptosis in human HCT-116 cells assessed as activation of cleaved PARP1 expression at 0.7 uM incubated for 24 hrs by Western blot analysis; format: functional, cell-based
MCF7 [10] = assay: Induction of apoptosis in human MCF7 cells assessed as activation of cleaved PARP1 expression at 0.7 uM incubated for 24 hrs by Western blot analysis; format: functional, cell-based
A549 = assay: Cytotoxicity against human A549 cells assessed as cell growth inhibition measured after 72 hrs by MTT assay; format: functional
HCT-116 [11] = assay: Induction of DNA damage in human HCT-116 cells assessed as increase in tail length incubated at 0.5 uM measured after 24 hrs by alkaline Comet assay; format: functional
THP-1 = assay: Cytotoxicity against human THP-1 cells assessed as cell growth inhibition measured after 72 hrs by MTT assay; format: functional
WM793 = assay: Cytotoxicity against human WM793 cells assessed as cell growth inhibition measured after 72 hrs by MTT assay; format: functional
[12] = Cytotoxicity against mouse BALB/3T3 cells assessed as cell growth inhibition measured after 72 hrs by MTT assay; format: cell-based
HCT-116 [13] = assay: Cytotoxicity against human HCT-116 cells assessed as cell growth inhibition measured after 72 hrs by MTT assay; format: functional
HepG2 [14] = assay: Cytotoxicity against human HepG2 cells assessed as cell growth inhibition measured after 72 hrs by MTT assay; format: functional
HCT-116 [15] = assay: Induction of DNA damage in human HCT-116 cells assessed as increase in olive tail moment incubated at 0.5 uM measured after 24 hrs by alkaline Comet assay; format: functional
[16] = Cytotoxicity against human HaCaT cells assessed as cell growth inhibition measured after 72 hrs by MTT assay; format: cell-based
HepG2 [17] = assay: Induction of apoptosis in human HepG2 cells assessed as effect on phospho-Rb expression at 1.6 uM after 24 hrs by Western blot analysis; format: functional, cell-based
Salmon testes DNA [18] = assay: Displacement of methyl green from salmon sperm DNA at 10 uM measured after 2 hrs by fluorescence plate reader method relative to control; format: cell-based; conditions: Salmo salar, Spermatozoa
HepG2 [19] = assay: Induction of DNA damage in human HepG2 cells assessed as increase in tail length incubated at 0.5 uM measured after 24 hrs by alkaline Comet assay; format: functional
Salmon testes DNA [20] = assay: Displacement of methyl green from salmon sperm DNA at 1 uM measured after 2 hrs by fluorescence plate reader method relative to control; format: cell-based; conditions: Salmo salar, Spermatozoa
HeLa = assay: Cytotoxicity against human HeLa cells assessed as cell growth inhibition measured after 72 hrs by MTT assay; format: functional
[21] = Selectivity index, ratio of GI50 for human HaCaT cells to GI50 for human HeLa cells; format: toxicity; conditions: HaCaT cells versus HeLa cells, read-out: RatioGI50
[22] = Selectivity index, ratio of GI50 for mouse BALA/3T3 cells to GI50 for human THP-1 cells
[23] = Selectivity index, ratio of GI50 for human HaCaT cells to GI50 for human A549 cells; format: toxicity; conditions: HaCaT cells versus A549 cells, read-out: RatioGI50
[24] = Selectivity index, ratio of GI50 for mouse BALA/3T3 cells to GI50 for human HeLa cells; format: toxicity; conditions: BALA/3T3 cells versus HeLa cells, read-out: RatioGI50
[25] = Selectivity index, ratio of GI50 for human HaCaT cells to GI50 for human THP-1 cells
[26] = Selectivity index, ratio of GI50 for mouse BALA/3T3 cells to GI50 for human HCT-116 cells; format: toxicity; conditions: BALA/3T3 cells versus HCT-116 cells, read-out: RatioGI50
[27] = Selectivity index, ratio of GI50 for human HaCaT mouse BALA/3T3 cells to GI50 for human A549 cells; format: toxicity; conditions: read-out: RatioGI50
[28] = Selectivity index, ratio of GI50 for mouse BALA/3T3 cells to GI50 for human HepG2 cells; format: toxicity; conditions: BALA/3T3 cells versus HepG2 cells, read-out: RatioGI50
[29] = Selectivity index, ratio of GI50 for mouse BALA/3T3 cells to GI50 for human MCF7 cells; format: toxicity; conditions: BALA/3T3 cells versus MCF7 cells, read-out: RatioGI50
[30] = Selectivity index, ratio of GI50 for mouse BALA/3T3 cells to GI50 for human WM793 cells
[31] = Selectivity index, ratio of GI50 for human HaCaT cells to GI50 for human WM793 cells
[32] = Cytotoxicity against human HaCaT cells assessed as cell growth inhibition at 100 uM measured after 72 hrs by MTT assay relative to control; format: cell-based; conditions: read-out: Activity
[33] = Selectivity index, ratio of GI50 for human HaCaT cells to GI50 for human HepG2 cells; format: toxicity; conditions: HaCaT cells versus HepG2 cells, read-out: RatioGI50
[34] = Selectivity index, ratio of GI50 for human HaCaT cells to GI50 for human HCT-116 cells; format: toxicity; conditions: HaCaT cells versus HCT-116 cells, read-out: RatioGI50
[35] = Selectivity index, ratio of GI50 for human HaCaT cells to GI50 for human MCF7 cells; format: toxicity; conditions: HaCaT cells versus MCF7 cells, read-out: RatioGI50

COc1cccc2c1C(=O)c1c(O)c3c(c(O)c1C2=O)C[C@@](O)(C(=O)CO)C[C@@H]3O[C@H]1C[C@H](N)[C@H](O)[C@H](C)O1 [DOXORUBICIN]
Activity (HCT-116 [1]): Active
Activity (BALB/3T3 [2]): 5.9
Activity (HepG2 [3]): 6.92
Activity (HepG2 [4]): Active
Activity (BALB/3T3 [5]): 15.9%
Activity (HepG2 [6]): Active
Activity (HepG2 [7]): Active
GI50 (MCF7 [8]): 0.4 µM
Activity (HCT-116 [9]): Active
Activity (MCF7 [10]): Active
GI50 (A549): 0.6 µM
Activity (HCT-116 [11]): 28.4%
GI50 (THP-1): 0.6 µM
GI50 (WM793): 0.6 µM
GI50 at 72 h [12]: 0.6 µM
GI50 (HCT-116 [13]): 0.6 µM
GI50 (HepG2 [14]): 0.7 µM
Activity (HCT-116 [15]): 10.3
GI50 at 72 h [16]: 0.9 µM
Activity (HepG2 [17]): Active
Activity (Salmon testes DNA [18]): 69.7%
Activity (HepG2 [19]): 23.4%
Activity (Salmon testes DNA [20]): 29.2%
GI50 (HeLa): 0.3 µM

COC(=O)c1[nH]c2ccc(F)cc2c1/C=C1\SC(=O)NC1=O
selectivity ratio [21]: 2.1
RatioGI50 [22]: 1.72
selectivity ratio [23]: 3.94
selectivity ratio [24]: 2.1
RatioGI50 [25]: 1.72
GI50 (MCF7 [8]): 80.7 µM
GI50 (A549): 25.4 µM
selectivity ratio [26]: 1.48
GI50 (THP-1): 45 µM
GI50 (WM793): 83.1 µM
selectivity ratio [27]: 3.94
selectivity ratio [28]: 3.36
selectivity ratio [29]: 1.24
GI50 at 72 h [12]: > 100 µM
GI50 (HCT-116 [13]): 67.6 µM
GI50 (HepG2 [14]): 29.8 µM
RatioGI50 [30]: 1.2
RatioGI50 [31]: 1.2
GI50 at 72 h [16]: > 100 µM
inhibition at 72 h, 100 µM [32]: 43.4%
selectivity ratio [33]: 3.36
selectivity ratio [34]: 1.48
selectivity ratio [35]: 1.24
GI50 (HeLa): 47.6 µM

COC(=O)c1[nH]c2ccc(F)cc2c1/C=C1\NC(=S)NC1=O
selectivity ratio [21]: 1.72
RatioGI50 [22]: 1.72
selectivity ratio [23]: 2.03
selectivity ratio [24]: 1.72
RatioGI50 [25]: 1.72
GI50 (MCF7 [8]): 63.7 µM
GI50 (A549): 49.2 µM
selectivity ratio [26]: 1.89
GI50 (THP-1): 58.3 µM
GI50 (WM793): 84.2 µM
selectivity ratio [27]: 2.03
selectivity ratio [28]: 2.95
selectivity ratio [29]: 1.57
GI50 at 72 h [12]: > 100 µM
GI50 (HCT-116 [13]): 53 µM
GI50 (HepG2 [14]): 33.9 µM
RatioGI50 [30]: 1.19
RatioGI50 [31]: 1.19
GI50 at 72 h [16]: > 100 µM
inhibition at 72 h, 100 µM [32]: 43.3%
selectivity ratio [33]: 2.95
selectivity ratio [34]: 1.89
selectivity ratio [35]: 1.57
GI50 (HeLa): 58.1 µM

COC(=O)c1[nH]c2ccc(F)cc2c1/C=C1\SC(N)=NC1=O
selectivity ratio [21]: 0.7
RatioGI50 [22]: 0.65
selectivity ratio [23]: 1.04
selectivity ratio [24]: 0.7
RatioGI50 [25]: 0.65
GI50 (MCF7 [8]): 67.7 µM
GI50 (A549): 62.7 µM
selectivity ratio [26]: 6.86
GI50 (THP-1): 100 µM
GI50 (WM793): 98.6 µM
selectivity ratio [27]: 1.04
selectivity ratio [28]: 1.31
selectivity ratio [29]: 0.96
GI50 at 72 h [12]: 30.3 µM
GI50 (HCT-116 [13]): 9.5 µM
GI50 (HepG2 [14]): 49.8 µM
RatioGI50 [30]: 0.66
RatioGI50 [31]: 0.66
GI50 at 72 h [16]: > 100 µM
inhibition at 72 h, 100 µM [32]: 20.2%
selectivity ratio [33]: 1.31
selectivity ratio [34]: 6.86
selectivity ratio [35]: 0.96
GI50 (HeLa): 93.3 µM

COC(=O)c1[nH]c2ccc(F)cc2c1/C=C1\SC(=O)NC1=S
selectivity ratio [21]: 1.57
RatioGI50 [22]: 3.02
selectivity ratio [23]: 9.9
selectivity ratio [24]: 1.57
RatioGI50 [25]: 3.02
GI50 (MCF7 [8]): 52.5 µM
GI50 (A549): 8.7 µM
selectivity ratio [26]: 1.91
GI50 (THP-1): 28.5 µM
GI50 (WM793): 83.1 µM
selectivity ratio [27]: 9.9
selectivity ratio [28]: 1.41
selectivity ratio [29]: 1.64
GI50 at 72 h [12]: 89.2 µM
GI50 (HCT-116 [13]): 45.1 µM
GI50 (HepG2 [14]): 60.9 µM
RatioGI50 [30]: 1.04
RatioGI50 [31]: 1.04
GI50 at 72 h [16]: 83.1 µM
selectivity ratio [33]: 1.41
selectivity ratio [34]: 1.91
selectivity ratio [35]: 1.64
GI50 (HeLa): 55 µM

COC(=O)c1[nH]c2ccc(F)cc2c1C=O
selectivity ratio [21]: 0.67
RatioGI50 [22]: 8.66
selectivity ratio [23]: 1.49
selectivity ratio [24]: 0.67
RatioGI50 [25]: 8.66
GI50 (MCF7 [8]): > 100 µM
GI50 (A549): 44.8 µM
selectivity ratio [26]: 0.67
GI50 (THP-1): 7.7 µM
GI50 (WM793): 82.5 µM
selectivity ratio [27]: 1.49
selectivity ratio [28]: 0.67
selectivity ratio [29]: 0.67
GI50 at 72 h [12]: 64 µM
GI50 (HCT-116 [13]): > 100 µM
GI50 (HepG2 [14]): > 100 µM
RatioGI50 [30]: 0.81
RatioGI50 [31]: 0.81
GI50 at 72 h [16]: 69.3 µM
selectivity ratio [33]: 0.67
selectivity ratio [34]: 0.67
selectivity ratio [35]: 0.67
GI50 (HeLa): 100 µM
